Where two headings read alike, the source gives them in different places. Some results are limits rather than exact numbers.

Experiment [1] has as its system HCT 116 colon carcinoma cell line. As to the kind of experiment: Cell proliferation assay (ATPlite), HCT 116. It counts as cell-based, human. Conditions: for Eff. (%): HCT 116, five days, maximum inhibitory effect, average of three experiments; for IC50: Homo sapiens, 120 h, HCT 116 near-diploid, five days, geometric average of three experiments (Suppl. Table 2A). The procedure:
(§1) Cell proliferation assays were carried out as described using ATPlite 1step™ (Perkin Elmer, Groningen, The Netherlands). Exposure time was 72 or 120 hours as indicated in the Legends to the Figures. Percentage growth was calculated, relative to the growth of unexposed cells, and relative IC50s were fitted using a four-parameter logistics curve (XLfit 5.3, IDBS). For Figure 4A and 7 dose response curves were redrawn in Prism. To compare the inhibitory potency of compounds in proliferation assays with HCT 116 parental and tetraploid clones, pIC50 (−^10logIC50) values were compared in three independent experiments. A two-tailed Student's t-test was performed to determine whether differences in sensitivity (ΔpIC50) were statistically significant. Caspase 3/7 activity of cancer cells was measured using Caspase-Glo 3/7 Assay kit (cat no. G8093, Promega, Madison USA). Viability of T-ALL cell samples was determined using ATPlite and exposure of 72 hours as described previously.
Background: In ATP-based viability assays light output follows the ATP content of the culture.

The subject of experiment [2] is post-tetraploid HPT2 cells. As to the kind of experiment: Cell proliferation assay, post-tetraploid HPT2. It counts as cell-based, human. To be noted: HPT2, five days; for Efficacy (%): average of three experiments; for IC50: Homo sapiens, 120 h, geometric average of three experiments. As for the experimental part:
(§2) Cancer cell lines and hTERT-RPE1 retinal pigment epithelial cells were purchased from the American Type Culture Collection (ATCC) (Manassas, VA, U.S.A.) from 2011 to 2014 [41] and cultured in ATCC-recommended media. All experiments were carried out within nine passages of the original vials from ATCC who authenticated the cancer cell lines by short tandem repeat analysis. We verified the mutant status of seven frequently mutated cancer genes (i.e., BRAF, CDKN2A, CTNNB1, EGFR, KRAS, PIK3CA and TP53) by full exome or targeted sequencing. Sequencing results were compared to COSMIC version 75 of the Genomics of Drug Sensitivity in Cancer data base and provided additional authentication of the identity of the cell lines. The isolation and characterization of post-tetraploid clones from HCT 116 has been described previously. The mutation status of the CDKN2A, CTNNB1, KRAS and PIK3CA genes were confirmed by sequence analysis in both the HCT 116 parental cell line and post-tetraploid clones. All experiments were carried out within nine passages of the original cell stocks that were transferred from the Max Planck Institute of Biochemistry (Martinsried, Germany) to Netherlands Translational Research Center.
as §1

For experiment [3], the system named is post-tetraploid HPT4 cells. Description: Cell proliferation assay, post-tetraploid HPT4. It counts as cell-based, human. Conditions: HPT4, five days; for Efficacy (%): average of three experiments; for IC50: Homo sapiens, 120 h, geometric average of three experiments. The procedure: as §2, §1
The test system of experiment [4] is post-tetraploid HPT1 cells. As to the kind of experiment: Cell proliferation assay, post-tetraploid HPT1. To be noted: HPT1, five days; for Efficacy (%): average of three experiments; for IC50: Homo sapiens, 120 h, geometric average of three experiments. It counts as cell-based, human. The procedure: as §2, §1
Experiment [5] has as its system HCT 116 vs HPT1, -2 and -4. Description: Drug sensitivity analysis, HCT116 diploid versus tetraploids. It counts as cell-based, human. To be noted: for Δeff. (%) / Phenotype (potency): HCT 116 vs HPT1, -2 and -4; for Phenotype (efficacy): HCT 116 vs HPT1, -2 and -4, based on % effect; for Phenotype (potency): 'resistant' indicates that tetraploids are resistant; for ΔpIC50: average log shift in sensitivity between parental and tetraploids. As for the experimental part:
as §1

In experiment [6] the test system is pediatric T-ALL patient cell samples. As to the kind of experiment: Viability assays with T-ALL patient samples. It counts as cell-based, human. Conditions: Homo sapiens, 72 h. As for the experimental part:
Written informed consent was obtained from the parents or legal guardians of each T-ALL patient to use excess diagnostic material for research purposes. The study was performed in accordance with the Institutional Review Board of the Erasmus Medical Center Rotterdam (The Netherlands) and in accordance with the Declaration of Helsinki. Leukemic cells were harvested from blood or bone marrow samples and were enriched to ≥ 90% purity.
as §1

Experiment [7] relates to MG-63 osteosarcoma cell line. To be noted: three day cell proliferation assay; cited from earlier work.
The subject of experiment [8] is DoTc2 4510 cervix carcinoma cell line. To be noted: three day cell proliferation assay; cited from earlier work.
For experiment [9], the system named is A-172 glioblastoma cell line. Conditions: three day cell proliferation assay; cited from earlier work.
Experiment [10] deals with OVCAR-3 ovary adenocarcinoma cell line. Conditions: three day cell proliferation assay; cited from earlier work.
Experiment [11] relates to LoVo colorectal adenocarcinoma cell line. Conditions: three day cell proliferation assay; cited from earlier work.
Experiment [12] has as its system HCT 116 colon carcinoma cell line. To be noted: three day cell proliferation assay; cited from earlier work.

As for `CCn1cc(-c2ccnc3[nH]c(-c4cccc(CN(C)C)c4)cc23)c(-c2ccc(NC(=O)N(C)C)cc2)n1` [GSK-1070916], in experiment [1], the “Eff. (%)” value turned out to be 61% and inhibition was half-maximal at 14 nM (IC50). In [2], the “Efficacy (%)” value is 100% and it took 1700 nM to reach half-maximal inhibition (IC50). Besides, in experiment [3], the “Efficacy (%)” value came out at 100% and half-maximal inhibition (IC50) was put at 1680 nM. Further, in [4], the “Efficacy (%)” value came out at 32% and the IC50 (in general, the midpoint of a concentration-inhibition curve) was determined as 16 nM. In addition, in experiment [5], the “Δeff. (%)” value is listed as 16%, the “Phenotype (efficacy)” value is recorded as “sensitive”, the “Phenotype (potency)” value is listed as “resistant” and the ΔpIC50 amounted to 1.41.

For `O=C(O)c1ccc(Nc2ncc3c(n2)-c2ccc(Cl)cc2C(c2c(F)cccc2F)=NC3)cc1` [MLN-8054], in experiment [1], the “Eff. (%)” value is listed as 85% and the IC50 turned out to be 715 nM. Besides, in experiment [2], the “Efficacy (%)” value is 52% and it took 1550 nM to reach half-maximal inhibition (IC50). Besides, in experiment [3], the “Efficacy (%)” value is recorded as 56% and the IC50 was 1200 nM. In [4], the “Efficacy (%)” value was determined as 61% and the IC50 was 1330 nM. In experiment [5], the “Δeff. (%)” value was −28%, the “Phenotype (efficacy)” value is “resistant”, the “Phenotype (potency)” value is given as “resistant” and the ΔpIC50 came out at 0.28.

Take `N[C@@H](CSC(c1ccccc1)(c1ccccc1)c1ccccc1)C(=O)O` [STLC, S-trityl-L-cysteine]: in experiment [1], the “Eff. (%)” value came to 99%. Moreover, in experiment [2], the “Efficacy (%)” value is listed as 93% and 1340 nM corresponded to half-maximal inhibition (IC50). In experiment [3], the “Efficacy (%)” value worked out at 95% and 1400 nM corresponded to half-maximal inhibition (IC50). Further, in experiment [4], the “Efficacy (%)” value is 90% and inhibition was half-maximal at 2040 nM (IC50). Besides, in experiment [5], the “Δeff. (%)” value is given as −6%, the “Phenotype (efficacy)” value is given as “resistant”, the “Phenotype (potency)” value was “resistant” and the ΔpIC50 stood at 0.34.

As to `CC(C)C[C@H](NC(=O)[C@H](Cc1ccccc1)NC(=O)c1cnccn1)B(O)O` [bortezomib], the IC50 was under 10 nM in experiment [6] (all ten T-ALL patient samples, three days, read-out: IC50); 3 nM in [6] (patient sample 491, three-day assay, read-out: IC50); 3 nM in [6] (patient sample 1033, three-day assay, read-out: IC50); 2 nM in experiment [6] (patient sample 1816, three-day assay, read-out: IC50); 3 nM in [6] (patient sample 2323, three-day assay, read-out: IC50); 4 nM in experiment [6] (patient sample 3594, three-day assay, read-out: IC50). Besides, the IC50 in [6] (patient sample 3852, three-day assay, read-out: IC50) amounted to 4 nM; in experiment [6] (patient sample 4023, three-day assay, read-out: IC50), 3 nM; in experiment [6] (patient sample 4126, three-day assay, read-out: IC50) it was 3 nM; in [6] (patient sample 4992, three-day assay, read-out: IC50), 3 nM; in [6] (patient sample 10110, three-day assay, read-out: IC50), 3 nM.

For `N.N.[Cl][Pt][Cl]` [cisplatin], the IC50 is 4510 nM in [7]; 7400 nM in experiment [8]; 15900 nM in [9]; 11300 nM in experiment [10]; 6730 nM in experiment [11]; 6210 nM in [12].

As to `CN(C)/N=N/c1[nH]cnc1C(N)=O` [dacarbazine], the IC50 in [7] is 16000 nM; in [8], 3090 nM; in experiment [9], 31600 nM; in experiment [10] it was 13900 nM; in [11], 5290 nM; in [12], 18600 nM.

As to `COc1cccc2c1C(=O)c1c(O)c3c(c(O)c1C2=O)C[C@@](O)(C(C)=O)C[C@@H]3O[C@H]1C[C@H](N)[C@H](O)[C@H](C)O1` [daunorubicin], the 50% inhibitory concentration (IC50) in [6] (all ten T-ALL patient samples, three days) is under 100 nM; in experiment [6] (patient sample 491, three-day assay), 80 nM; in experiment [6] (patient sample 1033, three-day assay), 43 nM; in experiment [6] (patient sample 1816, three-day assay), 38 nM; in experiment [6] (patient sample 2323, three-day assay), 80 nM; in [6] (patient sample 3594, three-day assay), 43 nM. The IC50 in experiment [6] (patient sample 3852, three-day assay) was 61 nM; in experiment [6] (patient sample 4023, three-day assay), 57 nM; in experiment [6] (patient sample 4126, three-day assay), 71 nM; in experiment [6] (patient sample 4992, three-day assay) it was 41 nM; in experiment [6] (patient sample 10110, three-day assay) it was 42 nM.

`COc1cccc2c1C(=O)c1c(O)c3c(c(O)c1C2=O)C[C@@](O)(C(=O)CO)C[C@@H]3O[C@H]1C[C@H](N)[C@H](O)[C@H](C)O1` [doxorubicin]: in experiment [1], the “Eff. (%)” value came to 97% and half-maximal inhibition (IC50) required 31 nM. Further, in [2], the “Efficacy (%)” value is recorded as 100% and the IC50 is 130 nM. Further, in experiment [3], the “Efficacy (%)” value is recorded as 100% and the half-maximal inhibitory concentration (IC50) stood at 83 nM. In [4], the “Efficacy (%)” value worked out at 99% and half-maximal inhibition (IC50) was put at 69 nM. In [5], the “Δeff. (%)” value was found to be 3%, the “Phenotype (efficacy)” value is “sensitive”, the “Phenotype (potency)” value is “resistant” and the ΔpIC50 is recorded as 0.46.

For the molecule `CC(=O)O[C@H]1C(=O)[C@@]2(C)[C@H]([C@H](OC(=O)c3ccccc3)[C@]3(O)C[C@H](OC(=O)[C@H](O)[C@@H](NC(=O)c4ccccc4)c4ccccc4)C(C)=C1C3(C)C)[C@]1(OC(C)=O)CO[C@@H]1C[C@@H]2O` [paclitaxel], the IC50 in experiment [7] is 6 nM; in [8] it was 10 nM; in experiment [9] it was 17 nM; in experiment [10], 26 nM; in [11] it was 23 nM; in experiment [12], 5 nM.

Take `CC[C@@H]1C(=O)N(C)c2cnc(Nc3ccc(C(=O)N[C@H]4CC[C@H](N5CCN(CC6CC6)CC5)CC4)cc3OC)nc2N1C(C)C` [volasertib]: in experiment [1], the “Eff. (%)” value is recorded as 98% and the IC50 is 25 nM. Moreover, in experiment [2], the “Efficacy (%)” value was found to be 65% and half-maximal inhibition (IC50) was put at 45 nM. Further, in [3], the “Efficacy (%)” value was determined as 84% and 49 nM corresponded to half-maximal inhibition (IC50). Besides, in [4], the “Efficacy (%)” value turned out to be 82% and the IC50 is 26 nM. In experiment [5], the “Δeff. (%)” value is given as −21%, the “Phenotype (efficacy)” value is given as “resistant”, the “Phenotype (potency)” value is on record as “resistant” and the ΔpIC50 is listed as 0.19.

Source of the values: article PMC5503534, “Stable aneuploid tumors cells are more sensitive to TTK inhibition than chromosomally unstable cell lines” (Oncotarget, 2017).
